Experimental data reported in US7745481B2, “Methods and compositions for the treatment and prevention of tumors, tumor-related disorders and cachexia” (Daiichi Sankyo Company, Limited, priority 1997, dated 2010).

How the values were obtained:
[1] = system: mouse malignant melanoma B16-BL6 cells; assay: Inhibitory effect on lung metastasis of mouse malignant melanoma B16-BL6 cells; format: in vivo; settings: for LMI (%) lung metastasis inhibitory rate: 1 mg/kg per day oral for five days, colonies counted on 10th day, C57BL/6 mice; for Inhibition of lung metastasis (in words): 1 mg/kg oral, lung metastasis accelerating conditions (LPS)
Method: Groups of mice, each group containing ten C57BL/6 mice (female, age: 8 weeks) were transplanted intravenously into the tail vein with 3×10^4 of mouse malignant melanoma B16-BL6 cells.
The mice were, when necessary, administered intravenously into the tail vein with a bacterial lipopolysaccharide (LPS) in an amount of 3 μg each within one hour before transplantation of the melanoma cells so as to accelerate lung metastasis of the melanoma [M. J. Anasagasti et al., J. Natl. Cancer Research, 89, 645-651 (1997).]
As test compounds, Compound No. 2-118, a compound of formula (IV), a compound of formula (V) and indomethacin were employed, and each was suspended in sterilized distilled water containing 0.5% w/v of carboxymethyl cellulose (CMC), and the suspensions were orally administered at a dose of 1 mg/kg per day for five days starting from the day of the melanoma cell transplantation.
Inhibitory activities on lung metastasis of the melanoma cells were evaluated in terms of the lung metastasis inhibitory rate (LMI %) by counting the number of metastatic colonies in the lung on the 10th day after intravenous transplantation of the mouse malignant melanoma B16-BL6 cells at the tail. LMI(%)=(1−Nt/Nc)×100 • Nt: Numbers of lung metastatic colonies on the 10th day in groups administered with the test compounds; and • Nc: Numbers of lung metastatic colonies on the 10th day in control groups which were not administered with the test compounds.

[2] = system: mouse sarcoma S-180 cells; assay: Antitumor effect against mouse sarcoma S-180 cells; format: in vivo; settings: 1 mg/kg oral once per day for 5 days; tumor volume on day 7; Balb/c nude mice
Method: 1×10^6 mouse sarcoma S-180 cells were transplanted subcutaneously in Balb/c nude mice (females, 8 weeks old) in groups of 10 each.
The test compound, Compound No. 2-118, was suspended in sterilized distilled water containing 0.5% w/v carboxymethyl cellulose (CMC) and administered orally once per day for 5 days starting on the day the tumor cells were transplanted.
Antitumor activity was assessed according to the following equation to determine the tumor growth inhibitory rate (GI %) on day 7 after the transplantation. GI(%)=(1−Vt/Vc)×100 • Vt: Mean tumor volume on day 7 in a group administered test compound (*) • Vc: Mean tumor volume on day 7 in an untreated control group (*) • *: Tumor volume is defined as ½×[tumor long axis]×[tumor short axis]^2

[3] = system: Human colon cancer KM12-HX cells; assay: Antitumor effect against human colon cancer KM12-HX cells (orthotopic transplant in nude mice); format: in vivo, mouse; settings: 9 doses (days 3-7 and 10-13), tumor weight on day 14, Balb/c nude mice
Source text: Human colon cancer KM12-HX cells were orthotopically transplanted into the cecum of nude mice according to the method of Fu et al. [X. Fu et al., Anticancer Res., 12 (1992)] using Balb/c nude mice (females, 7 weeks old) in groups of 10 each.
Specifically, an incision was made into the left lower abdominal region of each mouse under Abacin anesthesia, after which a thin section of tumor measuring 5 mm on a side was sutured to the cecum using absorbable surgical sutures to perform orthotopic transplant. The incision was sutured using absorbable surgical sutures and the mice were warmed and promptly awakened from anesthesia.
The test compound was suspended in sterilized distilled water containing 0.5% w/v carboxymethyl cellulose (CMC) and administered orally in a total of 9 doses consisting of one dose per day from days 3 to 7 after the tumor cell transplantation and from days 10 to 13 after the transplantation.
Antitumor activity was assessed according to the following equation to determine the tumor weight inhibitory rate (GI %) on day 14 after the transplantation. GI(%)=(1−Vt′/Vc′)×100 • Vt′: Mean tumor weight on day 14 in the group administered the test compound • Vc′: Mean tumor weight on day 14 in an untreated control group

[4] = system: mouse colon cancer Colon 26 cells; assay: Test of anticachexia effects in mice bearing mouse colon cancer Colon 26 cells; format: in vivo
Source text: The test animals were CDF1 mice (females, 8 weeks old). They were employed in groups of 10 for each test. 1×10^6 mouse colon cancer Colon 26 cells were transplanted subcutaneously into each animal.
The test compounds were Compounds No. 1-94 and 2-78 as shown above in Tables 1 and 2, respectively, and having the following formulae: […]
Each test compound was suspended in sterilized distilled water containing 0.5% w/v carboxymethyl cellulose (CMC) and administered orally once per day starting on the day of the tumor cell transplantation.
Each test animal was weighed immediately after tumor cell transplantation, and the weight (A g) was recorded. Each animal was then weighed on day 19 after tumor cell transplantation, and the weight (B g) was recorded. The weight gain on day 19 after tumor cell transplantation was calculated as B−A=Δgt for the test animals. The experiment was repeated with two control groups: the first control group (control group 1) was transplanted with the tumor cells but were not treated with any test compound, and the weight gain is reported as Δgc1; the second control group (control group 2) were not transplanted with the tumor cells and were not treated with any test compound, and the weight gain is reported as Δgc2. The body weight recovery rate was determined according to the following formula based on the weight gain on day 19 after tumor cell transplantation, and this value was used as an indicator of the anticachexia effect. Body weight recovery rate (%)=(Δgt−Δgc1)/(Δgc2−Δgc1)×100
(§1) The procedure described in Example 1 was repeated, but using the compound of formula (III) as the test compound, and comparing the weight gain (Δgt) of the test group of animals to which the compound of formula (III) had been administered with a control group (Δgc) into which the tumor cells had been transplanted but to which no anti-tumor compound had been administered. The test animals were female CDF1 mice, 16 weeks old. Also, the weight gain was measured 22 days after tumor transplantation. The average body weight of each group of animals immediately after tumor transplantation was 25 to 26 g.
as §1, with “Example 2” for “Example 1”, “formula (IV)” for “formula (III)”, “mice, 7” for “mice, 16”, “measured 15” for “measured 22”, “was 20” for “was 25”, “to 21” for “to 26”
Test compounds [the compounds of formula (V), (VI), (VII), (VIII), (IX), (X), (XI), (XII), (XIII) and (XIV)] are administered in the same manner as described in Example 2.

[5] = system: mouse colon cancer Colon 26 cells; assay: Life-prolonging activity test in mice bearing Colon 26 cells; format: in vivo; settings: Example 7, animals of Examples 3 and 4; present tense, no data
Method: Observation of the mice used in Example 1 above was continued. The life-prolonging index was determined, based on the number of days each mouse survived, and this value was then used as an indicator of the life-prolonging effects of the test compounds.
It should be noted that, in the case of the group of mice treated with a test compound, oral administration of the respective compound once daily was continued on day 20 after tumor cell transplantation and beyond as well. Life-prolonging index (%)=(St/Sc−1)×100 • St: Median value of survival time (days) of the group of mice treated with a test compound • Sc: Median value of survival time (days) of the control group which were […].
The experiment reported in Example 5 was repeated with the animals used in Example 2. In the case of the group of mice treated with a test compound, oral administration of the respective compound once daily was continued on day 23 after tumor cell transplantation and beyond as well.
The experiment reported in Example 5 is repeated with the animals used in Examples 3 and 4.

[6] = system: mouse colon cancer Colon 26 cells; assay: Test of anticachexia effects in mice bearing mouse colon cancer Colon 26 cells; format: in vivo; settings: 15 days after tumor transplantation, female CDF1 mice 7 weeks old, control −3.4
[7] = system: experimental colonic polyposis; settings: literature (Oshima 1996; Reddy 1996); cited from earlier work
[8] = system: human colon cancer cell lines; settings: literature (Sheng 1997); COX-2 expressing line HCA-7; cited from earlier work
[9] = LPS 3 μg i.v. before transplantation

SMILES: Cc1cc(-c2ccc(C)c(C)c2)n(-c2ccc(S(N)(=O)=O)cc2)c1 [Compound 2-118, 2-(3,4-dimethylphenyl)-4-methyl-1-(4-sulfamoylphenyl)pyrrole]
- LMI (%) lung metastasis inhibitory rate [1, 9]: 34%
- LMI (%) lung metastasis inhibitory rate ([1]; no LPS administration): 64%
- GI (%) tumor growth inhibitory rate [2]: 54%
- GI(%) tumor weight inhibitory rate ([3]; 0.3 mg/kg oral): 12%
- GI(%) tumor weight inhibitory rate ([3]; 1 mg/kg oral): 35%
- GI(%) tumor weight inhibitory rate ([3]; 3 mg/kg oral): 45%
- GI(%) tumor weight inhibitory rate ([3]; 10 mg/kg oral): 59%

SMILES: Cc1ccc(-c2cc(C(F)(F)F)nn2-c2ccc(S(N)(=O)=O)cc2)cc1 [Compound (IV), 4-(5-p-tolyl-3-trifluoromethyl-1H-pyrazol-1-yl)benzenesulfonamide]
- Inhibition of mouse tumor cachexia and weight loss (in words) ([4]; Examples 1-3, 1-10 mg/kg oral): inhibited mouse tumor cachexia and reduced weight loss
- Life-prolongation (in words) [5]: exhibit pronounced life-prolongation
- Inhibition of lung metastasis (in words) [1]: had no such inhibitory activity
- LMI (%) lung metastasis inhibitory rate [1, 9]: 9%
- Average Weight Gain (Δg) ([6]; 1 mg/kg oral once per day): -1.2 g
- Average Weight Gain (Δg) ([6]; 3 mg/kg oral once per day): -1.3 g
- Average Weight Gain (Δg) ([6]; 10 mg/kg oral once per day): -0.6 g

SMILES: CS(=O)(=O)Nc1cc2c(cc1Sc1ccc(F)cc1F)C(=O)CC2 [Compound (V), N-[6-(2,4-difluorophenylthio)-1-oxoindan-5-yl]methanesulfonamide]
- Inhibition of mouse tumor cachexia and recovery of body weight loss (in words) ([4]; Example 4, written in present tense, no data): inhibit mouse tumor cachexia and recover loss of average of body weight
- Life-prolongation (in words) [5]: exhibit pronounced life-prolongation
- Inhibition of lung metastasis (in words) [1]: had no such inhibitory activity
- LMI (%) lung metastasis inhibitory rate [1, 9]: 1%

SMILES: CS(=O)(=O)c1ccc(C2=C(c3ccc(F)c(F)c3)C(=O)OC2)cc1 [MF-tricyclic]
- Inhibition of occurrence of experimental colonic polyposis (in words) [7]: inhibit the occurrence of experimental colonic polyposis

SMILES: CS(=O)(=O)c1ccc(-n2nc(C(F)(F)F)cc2-c2ccc(F)cc2)cc1 [SC-58125]
- Growth inhibitory effects against human colon cancer cell lines (in words) [8]: exhibits growth inhibitory effects against certain types of human colon cancer cell lines
